From ChEMBL document CHEMBL3046189, “Synthesis of potent inhibitors of histidinol dehydrogenase” (Bioorg Med Chem Lett, 1996) come the findings set out here.

Experiment [1] deals with T1, Histidinol dehydrogenase, chloroplastic (Brassica oleracea var. capitata, UniProt P24226).
T1 sequence (P24226 whole entry): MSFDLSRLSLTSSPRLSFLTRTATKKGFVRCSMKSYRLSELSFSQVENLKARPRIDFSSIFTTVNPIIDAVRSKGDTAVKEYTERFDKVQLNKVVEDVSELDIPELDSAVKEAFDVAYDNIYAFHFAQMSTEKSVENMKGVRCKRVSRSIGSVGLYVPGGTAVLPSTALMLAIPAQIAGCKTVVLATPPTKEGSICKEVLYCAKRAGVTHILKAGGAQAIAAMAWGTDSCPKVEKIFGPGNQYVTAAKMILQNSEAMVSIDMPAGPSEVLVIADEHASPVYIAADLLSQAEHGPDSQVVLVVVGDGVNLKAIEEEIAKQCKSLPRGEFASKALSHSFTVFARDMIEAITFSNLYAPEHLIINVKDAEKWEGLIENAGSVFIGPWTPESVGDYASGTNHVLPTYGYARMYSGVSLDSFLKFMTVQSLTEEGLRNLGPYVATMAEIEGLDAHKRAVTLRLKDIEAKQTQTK
In words: Inhibition of Brassica oleracea (cabbage) histidinol dehydrogenase pre-incubated for 10 min before substrate histidinol addition by spectrophotometry.

Experiment [2] concerns the target T2, Histidinol dehydrogenase (Escherichia coli (strain K12), UniProt P06988).
T2 sequence (P06988 whole entry): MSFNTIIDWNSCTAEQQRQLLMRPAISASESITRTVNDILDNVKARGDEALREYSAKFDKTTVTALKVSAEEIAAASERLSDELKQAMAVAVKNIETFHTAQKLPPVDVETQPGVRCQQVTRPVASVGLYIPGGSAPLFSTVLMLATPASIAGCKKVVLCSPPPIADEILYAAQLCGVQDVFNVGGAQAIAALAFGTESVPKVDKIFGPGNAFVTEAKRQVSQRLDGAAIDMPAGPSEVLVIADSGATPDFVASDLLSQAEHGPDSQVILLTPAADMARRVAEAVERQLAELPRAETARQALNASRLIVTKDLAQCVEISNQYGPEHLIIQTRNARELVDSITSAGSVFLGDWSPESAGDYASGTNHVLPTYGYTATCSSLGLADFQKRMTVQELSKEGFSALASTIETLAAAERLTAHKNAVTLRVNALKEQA
In words: Inhibition of Escherichia coli histidinol dehydrogenase preincubated for 10 min before substrate histidinol addition by spectrophotometry.

Experiment [3] concerns Oryza sativa. In words: Inhibition of root growth in Oryza sativa (rice) seedlings grown in agar containing basal salts. The class given is functional, organism-based.
Experiment [4] deals with T3, Histidinol dehydrogenase, chloroplastic (Brassica oleracea var. capitata) (UniProt P24226).
T3 sequence (whole entry): T1 sequence (P24226 whole entry)
In words: Ratio of histidinol IC50 to compound IC50 for Brassica oleracea (cabbage) histidinol dehydrogenase.

Experiment [5] concerns Oryza sativa. In words: Inhibition of root growth in Oryza sativa (rice) seedlings grown in agar containing basal salts in presence of histidine. The class given is functional, organism-based.
Experiment [6] can be described thus: Ratio of IC50 for Escherichia coli histidinol dehydrogenase to IC50 for cabbage histidinol dehydrogenase.
Experiment [7] concerns the target T2, Histidinol dehydrogenase. In words: Binding affinity to Escherichia coli histidinol dehydrogenase.

Each structure is given as a SMILES string. Activity calls are given as the source filed them. The rule behind the calls is not given here. A value given as a limit tells only on which side of the number the result lay.

The molecule `Nc1cc(CC(=O)[C@@H](N)Cc2c[nH]cn2)ccc1Br` showed an IC50 in experiment [1] of 8 µM. For `N[C@@H](Cc1c[nH]cn1)C(=O)CCc1ccccc1`, half-maximal inhibition against Histidinol dehydrogenase [2] (IC50) required 100 µM. Take `N[C@@H](Cc1c[nH]cn1)C(=O)C(F)(F)C(F)(F)F`: on Histidinol dehydrogenase [2], the IC50 was determined as 20 µM. In turn, `N[C@@H](Cc1c[nH]cn1)C(=O)CCCc1ccccc1` showed an IC50 on Histidinol dehydrogenase [2] of 80 µM. With `N[C@@H](Cc1c[nH]cn1)C(=O)Cc1ccc(Br)cc1`, in the experiment on Oryza sativa [3], the “growth inhibition (GI)” value is “Active”. Further, the Ratio IC50 in experiment [4] was over 1000. In addition, in experiment [1], the IC50 was found to be 0.04 µM and the affinity corresponds to a Ki of 0.0044 µM.

As to `Nc1cccc(CC(=O)[C@@H](N)Cc2c[nH]cn2)c1`, the “growth inhibition (GI)” value in the experiment on Oryza sativa [5] is “inactive”. In addition, the “growth inhibition (GI)” value in the experiment with Oryza sativa [3] was “Active”. In experiment [1], the IC50 stood at 0.05 µM and the Ki is 0.0074 µM. For the molecule `N[C@@H](Cc1c[nH]cn1)C(=O)Cc1ccc(-c2ccccc2)cc1`, the Ratio IC50 in experiment [4] was over 1000. In experiment [1], this molecule registered an IC50 of 0.04 µM and a Ki of 0.0029 µM. `N[C@@H](Cc1c[nH]cn1)C(=O)Cc1ccc(Br)c(Br)c1` had a 50% inhibitory concentration (IC50) in experiment [1] of 0.05 µM.

`COc1ccc(CC(=O)[C@@H](N)Cc2c[nH]cn2)cc1` displayed an IC50 in experiment [1] of 1 µM. The same measure, in the same setting: next, `N[C@@H](Cc1c[nH]cn1)C(=O)Cc1ccccc1Br`: 1 µM.

Regarding `Nc1ccc(CC(=O)[C@@H](N)Cc2c[nH]cn2)cc1`, 0.5 µM corresponded to half-maximal inhibition in experiment [1] (IC50).

For `N[C@@H](Cc1c[nH]cn1)C(=O)Cc1ccc(Cl)cc1`, in experiment [1], inhibition was half-maximal at 0.3 µM (IC50). In turn, `N[C@@H](Cc1c[nH]cn1)C(=O)c1ccccc1` had an IC50 against Histidinol dehydrogenase [2] of over 100 µM. With `N[C@@H](Cc1c[nH]cn1)C(=O)Cc1ccccc1`, the IC50 stood at 1 µM at Histidinol dehydrogenase [2] and 0.1 µM in experiment [1]. The Ratio IC50 in experiment [6] turned out to be 10. In experiment [1], this molecule displayed an inhibition constant Ki of 0.0076 µM. `N[C@@H](Cc1c[nH]cn1)C(=O)Cc1cccc(O)c1` gave an IC50 in experiment [1] of 0.3 µM. In turn, `CCC(=O)C(N)Cc1c[nH]cn1` (stereo unspecified) gave an IC50 against Histidinol dehydrogenase [2] of over 100 µM. With `N[C@@H](Cc1c[nH]cn1)C(=O)Cc1cccc(Br)c1`, the IC50 in experiment [1] worked out at 0.1 µM. With `N[C@H](C=O)Cc1c[nH]cn1` [L-HISTIDINAL], at Histidinol dehydrogenase [7], the affinity, expressed as Kd, was 0.0014 µM. On Histidinol dehydrogenase [2], `CC(=O)C(N)Cc1c[nH]cn1` (stereo unspecified) gave an IC50 of 10 µM and a Ki of 5 µM.
